These results are taken from patent US20210261561A1, “BICYCLIC HETEROCYCLE DERIVATIVES HAVING SELECTIVE BACE1 INHIBITORY ACTIVITY” (SHIONOGI & CO., LTD., priority 2018, published 2021).

The target in experiment [1] is T1, BACE1 (Homo sapiens, UniProt P56817). The experiment in a line: BACE1 biochemical FRET based assay (Test Example 2-1). The text has this:
(§1) This assay is a Fluorescence Resonance Energy Transfer Assay (FRET) based assay. The substrate for this assay is an APP derived 13 amino acids peptide that contains the ‘Swedish’ Lys-Met/Asn-Leu mutation of the amyloid precursor protein (APP) beta-site secretase cleavage site. This substrate also contains two fluorophores: (7-methoxycoumarin-4-yl) acetic acid (Mca) is a fluorescent donor with excitation wavelength at 320 nm and emission at 405 nm and 2,4-dinitrophenol (Dnp) is a proprietary quencher acceptor. […] Upon cleavage by BACE1, the fluorophore Mca is separated from the quenching group Dnp, restoring the full fluorescence yield of the donor. The increase in fluorescence is linearly related to the rate of proteolysis.
(§2) Briefly in a 384-well format recombinant BACE1 protein in a final concentration of 0.04 μg/mL is incubated for 450 minutes at room temperature with […] substrate in incubation buffer (final concentrations: 33.3 mM Citrate buffer pH 5.0, 0.033% PEG, 3% DMSO) in the absence or presence of compound. Next the amount of proteolysis is directly measured by fluorescence measurement at T=0′-120′ and T=450′ (excitation at 320 nm and emission at 405 nm). Results are expressed in RFU (Relative Fluorescence Units), as difference between T450 and Tx (Tx is chosen depending on the reaction speed between 0 and 120 minutes.).
A best-fit curve is fitted by a minimum sum of squares method to the plot of % Controlmin versus compound concentration. From this an IC50 value (inhibitory concentration causing 50% inhibition of activity) can be obtained.

Experiment [2] has as its target T2, BACE2 (Homo sapiens, UniProt Q9Y5Z0).
T2 sequence (Q9Y5Z0 63-518): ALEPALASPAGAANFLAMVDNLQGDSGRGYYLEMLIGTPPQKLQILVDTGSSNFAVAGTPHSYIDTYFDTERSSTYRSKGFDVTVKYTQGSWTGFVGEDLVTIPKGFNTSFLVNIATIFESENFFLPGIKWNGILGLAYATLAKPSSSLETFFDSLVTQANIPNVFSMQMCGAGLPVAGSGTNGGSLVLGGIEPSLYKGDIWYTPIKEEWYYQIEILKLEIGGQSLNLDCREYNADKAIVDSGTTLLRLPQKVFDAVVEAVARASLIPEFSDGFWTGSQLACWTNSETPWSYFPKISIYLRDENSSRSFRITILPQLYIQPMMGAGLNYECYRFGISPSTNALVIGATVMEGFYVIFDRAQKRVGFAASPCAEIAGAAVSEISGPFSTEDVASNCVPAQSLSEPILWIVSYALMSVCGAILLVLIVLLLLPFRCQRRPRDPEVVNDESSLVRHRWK
The experiment in a line: BACE2 biochemical FRET based assay (Test Example 2-1 (2)). The settings on record: 0.4 μg/mL BACE2, 450 minutes, Citrate buffer pH 5.0. The text has this:
This assay is a Fluorescence Resonance Energy Transfer Assay (FRET) based assay. The substrate for this assay contains the ‘Swedish’ Lys-Met/Asn-Leu mutation of the amyloid precursor protein (APP) beta-secretase cleavage site. This substrate also contains two fluorophores: (7-methoxycoumarin-4-yl) acetic acid (Mca) is a fluorescent donor with excitation wavelength at 320 nm and emission at 405 nm and 2,4-dinitrophenol (Dnp) is a proprietary quencher acceptor. […] Upon cleavage by the beta-secretase, the fluorophore Mca is separated from the quenching group Dnp, restoring the full fluorescence yield of the donor. The increase in fluorescence is linearly related to the rate of proteolysis. Briefly in a 384-well format recombinant BACE2 protein in a final concentration of 0.4 μg/mL was incubated for 450 minutes at room temperature with 10 μM substrate in incubation buffer (final concentrations: 33.3 mM Citrate buffer pH 5.0, 0.033% PEG, 2% DMSO) in the absence or presence of compound. Next the amount of proteolysis was directly measured by fluorescence measurement at T=0 and T=450 (excitation at 320 nm and emission at 405 nm). Results were expressed in RFU (Relative Fluorescence Units), as difference between T450 and TO.
A best-fit curve was fitted by a minimum sum of squares method to the plot of % Controlmin versus compound concentration. From this an IC50 value (inhibitory concentration causing 50% inhibition of activity) can be obtained.

Experiment [3] relates to Abeta 1-37, Abeta 1-38, Abeta 1-40 and Abeta 1-42 in cerebrospinal fluid (CSF). The experiment in a line: Pharmacology in the beagle dog, beta-amyloid profile in CSF (Test Example 18-1). It is filed as in vivo. As to the method: Test compounds were tested to evaluate the effect on the beta-amyloid profile in cerebrospinal fluid (CSF) of dogs after a single dose, in combination with pharmacokinetic (PK) follow up and limited safety evaluation.
In the case of compounds shown below, two beagle dogs (1 male, 1 female) were dosed with vehicle (1 mL/kg of an aqueous solution of 20% cyclodextrin) and 4 beagle dogs (2 males and 2 females) were dosed with test compound at the doses indicated in the following Table in an aqueous 20% cyclodextrin solution with a concentration in mg/mL identical to the dose given in mg/kg) on an empty stomach.
CSF was taken in conscious animals directly from the lateral ventricle via a cannula which was screwed in the skull and covered with subcutaneous tissue and skin, before and at 4, 8, 25 and 49 hours after dosing. Eight hours after dosing the animals got access to their regular meal for 30 minutes. Blood was taken for PK follow up (0.5, 1, 2, 4, 8, 25 and 49 hours) and serum samples for biochemistry were taken before and at 8 and 25 h after dosing. The CSF samples were used for measurement of Abeta 1-37, Abeta 1-38, Abeta 1-40 and Abeta 1-42.

Experiment [4] addresses T2, BACE2. The experiment in a line: BACE2 biochemical FRET based assay (Test Example 2-4). The settings on record: recombinant BACE2 0.4 μg/mL, 10 μM substrate, 450 minutes, pH 5.0; read-out: BACE2 Biochemical FRET based assay pIC50 (converted).
Text: as §1, with “assay” for “assay is an APP derived 13 amino acids peptide that”, “beta-secretase” for “beta-site secretase”, “the beta-secretase,” for “BACE1,”
Briefly in a 384-well format recombinant BACE2 protein in a final concentration of 0.4 μg/mL is incubated for 450 minutes at room temperature with 10 μM substrate in incubation buffer (final concentrations: 33.3 mM Citrate buffer pH 5.0, 0.033% PEG, 2% DMSO) in the absence or presence of compound. Next the amount of proteolysis is directly measured by fluorescence measurement at T=0 and T=450 (excitation at 320 nm and emission at 405 nm). Results are expressed in RFU (Relative Fluorescence Units), as difference between T450 and TO.
(§3) Data are analysed using Screener (Registered trademark) (Genedata, Switzerland). Data were normalized and % inhibition=100−[(sample−LC)/(HC−LC))*100], was plotted versus the log concentration of the test compound. Curves were analysed using non-linear regression analysis and IC50 values (inhibitory concentration causing 50% inhibition of activity) were derived from individual curves.
(§4) LC=Median of the low control values
(§5) =Low control: Reaction without enzyme
(§6) HC=Median of the High control values
(§7) =High Control: Reaction with enzyme
(§8) % Inhibition=100−[(sample−LC)/(HC−LC)*100]

In experiment [5] the target is T3, BACE2 (Mus musculus, UniProt Q9JL18).
T3 construct: endogenous in cells; host or cells: MIN6 mouse insulinoma cells expressing Flag-V5-TMEM27-HA
T3 sequence (Q9JL18 63-514): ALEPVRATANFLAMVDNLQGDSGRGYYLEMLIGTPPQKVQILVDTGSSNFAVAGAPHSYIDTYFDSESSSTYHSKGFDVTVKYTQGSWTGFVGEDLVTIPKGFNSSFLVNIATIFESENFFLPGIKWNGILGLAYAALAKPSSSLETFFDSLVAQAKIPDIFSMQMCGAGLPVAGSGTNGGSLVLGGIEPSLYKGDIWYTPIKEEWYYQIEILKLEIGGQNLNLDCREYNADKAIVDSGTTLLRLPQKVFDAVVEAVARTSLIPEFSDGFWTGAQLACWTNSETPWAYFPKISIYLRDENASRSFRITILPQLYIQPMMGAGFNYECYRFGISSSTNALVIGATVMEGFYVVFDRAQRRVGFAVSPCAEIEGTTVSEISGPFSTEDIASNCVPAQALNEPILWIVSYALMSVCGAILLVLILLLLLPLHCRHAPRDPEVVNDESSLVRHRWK
Kind of experiment: BACE2 cellular assay in MIN6 cells, secreted TMEM27 (Test Example 2-5). It counts as cell-based. The settings on record: 24 hours incubation, secreted TMEM27 by MSD, read-out: Cellular MSD assay in Min6 cells TV1EV127 pIC50 (converted). The procedure:
Cellular BACE2 activity was measured by determination of the level of secreted TMEM27 into the medium of MIN6 cells using an MSD platform. The assay is based on the mouse insulinoma MIN6 cells expressing Flag-V5-TMEM27-HA. When BACE2 cleaves TMEM27 the N-terminal part of TMEM27 with the V5-Flag tag will be shed into the medium, and the amount of this cleaved product is measured with the MSD assay.
Briefly in a 96-well format the cells are incubated for 24 hours in the presence of the compound followed by the measurement of secreted TMEM27 in the medium via MSD using FLAG-L5 coating antibody and a V5 detection antibody. When TMEM27 is captured on the electrode surface of the multi-array microplate the detection antibody, conjugated with the sulfo-Tag™, is in close proximity of the surface, it generates a light via a series of reduction and oxidation reactions. The intensity of the emitted light is measured with the MSD imager to provide a quantitative measure for the analytes in the sample.
as §3, §4, §5, §6, §7, §8

In experiment [6] the target is T1, BACE1. The experiment in a line: BACE1 biochemical FRET based assay - Method 1 (Test Example 2-2). The settings on record: 0.04 μg/mL BACE1, 450 minutes, Citrate buffer pH 5.0, read-out: BACE1 Biochemical FRET based assay - Method 1 PIC50 (converted).
Text: as §1, §2, §3, §4, §5, §6, §7, §8

Experiment [7] deals with T1, BACE1. Kind of experiment: BACE1 cellular αLisa assay in SKNBE2 cells, Abeta 1-42 (Test Example 2-3). It counts as cell-based. Set-up: endogenous in cells; host or cells: SKNBE2 human neuroblastoma cells expressing hAPP695. The settings on record: SKNBE2 cells expressing hAPP695, 18 hours incubation, read-out: Cellular αLisa assay in SKNBE2 cells Abeta 42 pIC50 (converted). The procedure: In two αLisa assays the levels of Abeta 1-42 or Abeta total produced and secreted into the medium of human neuroblastoma SKNBE2 cells are quantified. The assays are based on the human neuroblastoma SKNBE2 expressing the wild type Amyloid Precursor Protein (hAPP695). The compounds are diluted and added to these cells, incubated for 18 hours and then measurements of Abeta 1-42 or Abeta total are taken. Abeta 1-42 or Abeta total are measured by sandwich αLisa using biotinylated antibody AbN/25 attached to streptavidin coated donor beads and antibody cAb42/26 or Ab 4G8 conjugated acceptor beads for the detection of Abeta 1-42 or Abeta total respectively. In the presence of Abeta 1-42 or Abeta total, the beads come into close proximity. The excitation of the donor beads provokes the release of singlet oxygen molecules that trigger a cascade of energy transfer in the acceptor beads, resulting in light emission. Light emission is measured after 1 h incubation (excitation at […] and emission at 615 nm).
as §3
LC=Median of the low control values • =Low control: Reaction without enzyme
HC=Median of the High control values • =High Control: Reaction with enzyme
as §8

T1 sequence (P56817 46-501): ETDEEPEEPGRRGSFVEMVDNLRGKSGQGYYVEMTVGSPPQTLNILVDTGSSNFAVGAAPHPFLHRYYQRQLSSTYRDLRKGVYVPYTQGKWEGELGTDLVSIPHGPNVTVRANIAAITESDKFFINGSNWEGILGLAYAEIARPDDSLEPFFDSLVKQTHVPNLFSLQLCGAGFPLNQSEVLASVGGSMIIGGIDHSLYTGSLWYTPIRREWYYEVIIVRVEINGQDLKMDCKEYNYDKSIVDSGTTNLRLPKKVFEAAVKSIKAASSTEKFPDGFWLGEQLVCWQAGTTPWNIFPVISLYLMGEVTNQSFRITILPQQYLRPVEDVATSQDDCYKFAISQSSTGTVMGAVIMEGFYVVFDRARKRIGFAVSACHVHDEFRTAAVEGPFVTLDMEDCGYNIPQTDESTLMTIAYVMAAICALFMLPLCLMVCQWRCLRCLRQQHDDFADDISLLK

`C[C@@H]1C[C@H]2OC(N)=N[C@](CF)(c3cc(NC(=O)c4cc5c(cn4)OC(F)(F)CO5)ccc3F)[C@H]2CO1` [Compound I-053] showed a selectivity in experiment [1] (BACE2 IC50 over BACE1 IC50 (FRET)) of 200. Further, the IC50 came out at 10 nM in experiment [1] (FRET, 0.04 μg/mL BACE1, 450 minutes, Citrate buffer pH 5.0) and 2000 nM in experiment [2]. Further, the figures for the “% Decrease in Abeta 1-42 at 8 h post dosing compared to own baseline” value in experiment [3] (single dose 0.63 mg/kg) and in experiment [3] (single dose 2.5 mg/kg) were −31% and −50%, respectively. Moreover, the “% Decrease in Abeta 1-42 at 25 h post dosing compared to own baseline” value in experiment [3] (single dose 2.5 mg/kg, 25 h, relevant decrease = >20% decrease) is on record as −27%.
With `Cc1c(C(=O)Nc2ccc(F)c(C3(CF)CCC(C)(S(C)(=O)=O)C(N)=N3)c2)ncc2c1OCC(F)(F)O2` (stereo not drawn) [II-15], the IC50 in experiment [4] is 331 nM; in experiment [5] it was 427 nM; in experiment [6], 11.7 nM; in experiment [7], 22.9 nM.
Take `CCS(=O)(=O)C1(CF)CCC(C)(c2cc(NC(=O)c3cc4c(cn3)OC(F)(F)CO4)ccc2F)N=C1N` (stereo not drawn) [II-34]: the IC50 in experiment [4] is 155 nM; in experiment [5], 295 nM; in experiment [6] it was 3.24 nM; in experiment [7], 3.31 nM.
Take `CCS(=O)(=O)[C@]1(CF)CC[C@@](C)(c2cc(NC(=O)c3cc4c(cn3)OC(F)(F)O4)ccc2F)N=C1N` [II-35]: the IC50 is 295 nM in experiment [4], 617 nM in experiment [5], 5.37 nM in experiment [6] and 9.77 nM in experiment [7].
